The text below walks through data of patent US4668686A, “Imidazoquinoline antithrombrogenic cardiotonic agents” (Bristol-Myers Company, priority 1986, dated 1987).

Converted amounts (≈) assume the structure as drawn. Where two headings read alike, the source gives them in different places.

In assay [1] the target is T1, cAMP phosphodiesterase (PDE) obtained from human platelets (Homo sapiens, UniProt Q14432).
T1 construct: obtained from human platelets; from tissue; host or cells: human platelets
The assay is described as follows: Inhibition of cyclic AMP phosphodiesterase. The class given is biochemical. The procedure: This assay is carried out essentially as described by Thompson, et al., Methods in Enzymology, 38, 205-212 (1974). Briefly, tritium labeled cyclic adenosine monophosphate (cAMP) is incubated with a phosphodiesterase (PDE) enzynme obtained from human platelets which converts a portion of the cAMP to 5'AMP in culture tubes. This reaction is terminated by submerging the tubes in a boiling water bath after which they are placed on ice and an aliquot of snake venom is added to each tube. This, during a second incubation, converts the 5'AMP to adenosine. Ion exchange resin is added to bind the remaining cyclic AMP. The tubes are centrifuged to sediment the resin and a portion of the clear supernatent (which contains radioactive adenosine) is counted in a liquid scintillation counter. The cAMP phosphodiesterase inhibition activity of a test agent is determined by pre-incubating the PDE enzyme preparation with the test agent.

Assay [2] has as its system collagen-induced platelet aggregation. Briefly: In vitro inhibition of collagen-induced platelet aggregation (aggregometer, rabbit PRP). The class given is cell-based. Particulars: Oryctolagus cuniculus, read-out: Platelet Inhibition In Vitro - Rabbit PRP EC50 vs. collagen. How it is done: (§1) The aggregometer method of Born (1), as modified by Mustard, et al. (2) was used to assess the in vitro activity of the various compounds as to inhibition of adenosine diphosphate (ADP) and collagen-induced platelet aggregation. Platelet rich plasma (PRP) was separated by centrifugation from citrated (3.8 percent) rabbit blood. […] The various compounds tested were dissolved in dimethylsulfoxide (DMSO) so that 5 mcl added to the platelet rich plasma would yield the desired test concentration. Vehicle control trials were done and compared with aggregation induced in platelet rich plasma containing various concentrations of the test compounds. Dose response curves were obtained and Effective Concentration (EC50) values calculated.

The test system of assay [3] is ADP-induced platelet aggregation. The assay is described as follows: In vitro inhibition of ADP-induced platelet aggregation (aggregometer, rabbit PRP). The conditions noted are these: Oryctolagus cuniculus, read-out: Platelet Inhibition In Vitro - Rabbit PRP EC50 vs. ADP. It counts as cell-based. How it is done:
as §1

The test system of assay [4] is right ventricular contractile force (RVCF). The assay is described as follows: In vivo inotropic activity (right ventricular contractile force, anesthetized ferrets). The conditions noted are these: Mustela putorius, intraduodenal, read-out: Inotropic Activity In Vivo - Ferret % Change RVCF. How it is done: This test is carried out in ferrets as follows.
Fasted anesthetized ferrets are instrumented to study hemodynamic parameters as well as right ventricular contractile force using a Walton-Brodie open strain guage arch. Drugs are administered intraduodenally as solutions in DMSO (1 mL or less) and effects on myocardial contractile force and other parameters are monitored for 60 minutes after dosing. Changes in contractile force in response to drug treatment are expressed in terms of percent change from predose control.

In assay [5] the test system is platelet aggregation vs. ADP. Briefly: Inhibition of platelet aggregation following oral administration (Ex vivo). It counts as in vivo. The conditions noted are these: Rattus norvegicus, rats, 2 hours after dosing. How it is done:
This test is sometimes referred to in the art as an Ex vivo method and was initially described by Fleming, et al., Arch. Int. Pharmacodyn. Ther., 199, 164 (1972). Briefly, the assay is essentially carried out as follows. Aggregometry is performed in vitro as previously described on platelet rich plasma samples obtained from rats dosed with either test compounds or the vehicle. In all cases, activity is determined 2 hours after the drug is administered orally at various doses by gavage as a suspension in […] plus a few drops of Tween 20.

[6] abbreviates: 3 mg/kg, i.d., mean ± standard error when n more than 1.

T1 sequence (Q14432 whole entry): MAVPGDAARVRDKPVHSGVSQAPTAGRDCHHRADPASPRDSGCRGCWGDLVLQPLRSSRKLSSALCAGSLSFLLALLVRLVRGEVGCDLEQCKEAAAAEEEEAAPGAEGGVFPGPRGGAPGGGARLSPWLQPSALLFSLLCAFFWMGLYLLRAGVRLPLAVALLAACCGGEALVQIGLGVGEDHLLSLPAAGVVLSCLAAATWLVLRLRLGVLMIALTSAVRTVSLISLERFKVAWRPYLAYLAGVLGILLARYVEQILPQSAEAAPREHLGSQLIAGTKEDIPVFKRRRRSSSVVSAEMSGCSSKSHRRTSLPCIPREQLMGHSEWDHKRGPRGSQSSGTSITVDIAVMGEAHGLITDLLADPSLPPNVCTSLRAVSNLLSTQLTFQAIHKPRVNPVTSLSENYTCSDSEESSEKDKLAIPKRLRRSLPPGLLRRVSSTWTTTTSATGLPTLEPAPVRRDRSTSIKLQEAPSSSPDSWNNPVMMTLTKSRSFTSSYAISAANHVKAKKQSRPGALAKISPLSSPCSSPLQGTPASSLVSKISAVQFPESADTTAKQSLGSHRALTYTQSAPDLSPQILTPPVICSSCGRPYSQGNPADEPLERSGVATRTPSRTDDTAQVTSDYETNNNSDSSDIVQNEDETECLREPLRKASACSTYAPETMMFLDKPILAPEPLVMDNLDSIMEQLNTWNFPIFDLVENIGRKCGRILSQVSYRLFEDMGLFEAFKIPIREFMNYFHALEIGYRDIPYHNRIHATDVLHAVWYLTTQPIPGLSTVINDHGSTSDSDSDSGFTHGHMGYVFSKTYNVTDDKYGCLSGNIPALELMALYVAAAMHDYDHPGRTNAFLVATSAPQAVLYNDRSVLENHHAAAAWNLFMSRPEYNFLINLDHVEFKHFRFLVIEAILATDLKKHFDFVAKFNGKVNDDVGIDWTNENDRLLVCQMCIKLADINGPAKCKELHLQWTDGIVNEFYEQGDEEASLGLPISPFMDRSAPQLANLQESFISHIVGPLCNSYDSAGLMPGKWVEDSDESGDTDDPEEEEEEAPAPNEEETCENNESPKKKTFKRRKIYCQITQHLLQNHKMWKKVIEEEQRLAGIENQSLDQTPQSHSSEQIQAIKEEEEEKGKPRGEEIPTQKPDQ

`O=c1[nH]c2cc3cc(Br)ccc3nc2[nH]1` [Example 22, 7-Bromo-1,3-dihydro-2H-imidazo[4,5-b]quinolin-2-one] had a concentration for half-maximal inhibition (IC50) in assay [1] of 100 nM. Further, the EC50 was 0.2 µg/mL (≈ 0.757 µM) in assay [2] and 0.3 µg/mL (≈ 1.14 µM) in assay [3].
As to `COc1ccc2nc3[nH]c(=O)[nH]c3cc2c1` [Example 12, 7-Methoxy-1,3-dihydro-2H-imidazo[4,5-b]quinolin-2-one], in assay [4] (setting [6]), the change in vivo at 3 mg/kg turned out to be 11 ± 4%. Further, in assay [2], the EC50 came out at 0.02 µg/mL (≈ 0.0929 µM).
As to `Cc1ccc2c(c1C)CC1NC(=O)NC1=N2` (centres unmarked) [Example 35, 7,8-Dimethyl-1,3,9,9a-tetrahydro-2H-imidazo-[4,5-b]quinolin-2-one], the ED50 in assay [5] was over 10 mg/kg. The same molecule displayed a half-maximal inhibitory concentration (IC50) in assay [1] of 30 nM. For the same molecule, the results for the 50% effective concentration (EC50) in assay [2] and in assay [3] were 0.04 µg/mL (≈ 0.186 µM) and 0.1 µg/mL (≈ 0.465 µM), respectively.
Consider `Cc1cccc2c1CC1C(=N2)NC(=O)N1C` (centres unmarked) [Example 36, 1,3,9,9a-Tetrahydro-1,8-dimethyl-2H-imidazo[4,5-b]quinolin-2-one], for which the EC50 in assay [2] came out at 12 µg/mL (≈ 55.7 µM); in assay [3], 20 µg/mL (≈ 92.9 µM).
Molecule `OCCN(CCO)c1nc(N2CCCCC2)c2nc(N(CCO)CCO)nc(N3CCCCC3)c2n1` [dipyridamole, reference compound] returned an ED50 in assay [5] of over 100 mg/kg. Further, the concentration for a half-maximal effect (EC50) in assay [3] was over 512 µg/mL.
In assay [1], `Cc1cccc2c1CC1NC(=O)NC1=N2` (centres unmarked) [Example 20-3, 8-methyl-1,3,9,9a-tetrahydro-2H-imidazo[4,5-b]quinolin-2-one] displayed an IC50 of 100 nM. Further, in assay [4] (0.3 mg/kg, i.d.), the change in vivo at 0.3 mg/kg worked out at 30 ± 5%. For the same molecule, the change in vivo at 3 mg/kg in assay [4] (setting [6]) came to 15 ± 4%. Further, the half-maximal effective concentration (EC50) in assay [2] was 0.03 µg/mL (≈ 0.149 µM); in assay [3], 0.05 µg/mL (≈ 0.248 µM).
With `Cc1[nH]c(=O)c(C#N)cc1-c1ccncc1` [milrinone, reference compound], in assay [4], the change in vivo at 3 mg/kg worked out at 52%.
In turn, `O=c1[nH]c2cc3ccc(C(F)(F)F)cc3nc2[nH]1` [Example 25, 1,3-Dihydro-6-(trifluoromethyl)-2H-imidazo[4,5-b]quinolin-2-one] showed an ED50 in assay [5] of over 10 mg/kg. Besides, it took 300 nM to reach half-maximal inhibition in assay [1] (IC50). Also, the EC50 in assay [2] came out at 0.7 µg/mL (≈ 2.76 µM); in assay [3], 0.4 µg/mL (≈ 1.58 µM).
